Data from ChEMBL document CHEMBL3137667, “[Drug-induced liver injury; fourteenth updated edition of the bibliographic database of liver injuries and related drugs]” (Gastroenterol Clin Biol, 2004).

What was measured:
[1] = Highest frequency of moderate liver toxicity observed during clinical trials, expressed as a percentage. [column '% BIOL' in source]; conditions: human
[2] = Highest frequency of acute liver toxicity observed during clinical trials, expressed as a percentage. [column '% AIGUE' in source]; conditions: human
[3] = Times to onset, minimal and maximal, observed in the indexed observations. [column 'DELAI' in source]; conditions: human
[4] = Proposed mechanism(s) of liver damage. [column 'MEC' in source]; conditions: human
[5] = human, serum
[6] = human, serum; remark: listed apart in the source
[7] = human
[8] = human; remark: listed apart in the source
[9] = human; remark: listed apart in the source
[10] = human, serum, 4383 h
[11] = human; remark: listed apart in the source
[12] = human; remark: listed apart in the source
[13] = human; remark: listed apart in the source
[14] = human; remark: listed apart in the source
[15] = human; remark: listed apart in the source
[16] = human; remark: listed apart in the source
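Throughout, for Hepatotoxicity (association with vascular disease): count of indexed literature references reporting vascular liver injury in humans, e.g. peliosis hepatitis, hepatic veno-occlusive disease or Budd-Chiari syndrome.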
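Throughout, for Hepatotoxicity (benign tumour): value is a count of indexed literature references citing a benign tumour confirmed by histopathology.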
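Throughout, for Hepatotoxicity (choleostasis): human cholestatic liver injury, shown by histopathology or by peak ALT or AST elevation over alkaline phosphatase ratio below 2, value counts indexed literature reports.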
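Throughout, for Hepatotoxicity (chronic liver disease): chronic liver injury confirmed by histopathology or persistently raised serum aminotransferase activity beyond 6 months, value given as the count of indexed literature references.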
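Throughout, for Hepatotoxicity (cirrhosis): value is a count of indexed literature references reporting cirrhosis confirmed by histopathology.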
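Throughout, for Hepatotoxicity (cytolytic): human cytolytic liver injury, shown by histopathology or by a ratio above 5 of peak ALT or AST elevation to alkaline phosphatase elevation, value counts indexed references.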
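Throughout, for Hepatotoxicity (granulomatous hepatitis): value is a count of indexed literature references reporting granulomatous liver disease confirmed by histopathology.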
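Throughout, for Hepatotoxicity (malignant tumour): malignant tumour confirmed by histopathology, value gives the count of indexed literature references reporting it.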
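Throughout, for Hepatotoxicity (severe hepatitis): human clinical data: severe hepatitis, meaning potentially life-threatening liver failure or clinically observed cases, the value counts how many indexed literature references report it.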
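Throughout, for Hepatotoxicity (steatosis): steatosis confirmed by histopathology, value is the count of indexed references.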

SMILES | Hepatotoxicity (moderate) [1] | Hepatotoxicity (acute) [2] | Hepatotoxicity (time to onset) [3] | Hepatotoxicity (mechanism) [4] | Hepatotoxicity (moderate) [5] | Hepatotoxicity (acute) [6] | Hepatotoxicity (cytolytic) [7] | Hepatotoxicity (choleostasis) [8] | Hepatotoxicity (severe hepatitis) [9] | Hepatotoxicity (chronic liver disease) [10] | Hepatotoxicity (cirrhosis) [11] | Hepatotoxicity (granulomatous hepatitis) [12] | Hepatotoxicity (association with vascular disease) [13] | Hepatotoxicity (steatosis) [14] | Hepatotoxicity (malignant tumour) [15] | Hepatotoxicity (benign tumour) [16] | Hepatotoxicity (moderate) ([1]; Liver) | Hepatotoxicity (acute) ([2]; Liver) | Hepatotoxicity (severe hepatitis) ([9]; Liver) | further results
O=C1c2c(O)ccc(O)c2C(=O)c2c(NCCNCCO)ccc(NCCNCCO)c21 [MITOXANTRONE] | 80% | 42.8% | 4 days - 24 days | Dose-dependant | 21 | 4 | 0 | 0 | 2 | 0 | 0 | 0 | 0 | 0 | 0 | 0 |  |  |  | 
O=C1CC[C@@]2(O)[C@H]3Cc4ccc(O)c5c4[C@@]2(CCN3CC2CC2)[C@H]1O5 [NALTREXONE] |  |  | 1 month - 2 months | Dose-dependant | 9 | 3 | 3 | 0 |  | 0 | 0 | 0 | 0 | 0 | 0 | 0 | 20% | 0% | 0 | 
Cc1ccnc2c1NC(=O)c1cccnc1N2C1CC1 [NEVIRAPINE] | 47.1% | 37.5% | 8 days - 3 years | Allergic | 18 | 49 | 29 | 2 | 14 | 0 | 0 | 0 | 0 | 0 | 0 | 0 |  |  |  | 
CC1(C)NC(=O)N(c2ccc([N+](=O)[O-])c(C(F)(F)F)c2)C1=O [NILUTAMIDE] |  |  | 1 month - 4 months |  | 5 | 5 |  |  |  | 0 | 0 |  | 0 | 0 | 0 | 0 | 8% | 0% | 4 | Hepatotoxicity (mechanism) ([4]; Liver): Reactive metabolite; Hepatotoxicity (cytolytic) ([7]; Liver): 4; Hepatotoxicity (choleostasis) ([8]; Liver): 0; Hepatotoxicity (granulomatous hepatitis) ([12]; Liver): 0
Cc1cc2c(s1)Nc1ccccc1N=C2N1CCN(C)CC1 [OLANZAPINE] | 30% | 0% | 13 days - 15 months | Allergic, Dose-dependant | 13 | 2 | 2 | 1 | 0 | 0 | 0 | 0 | 0 | 1 | 0 | 0 |  |  |  | 
